The test deals with T1, Chloroperoxidase (CPO) (Leptoxyphium fumago, UniProt P04963).
T1 sequence (P04963 21-319): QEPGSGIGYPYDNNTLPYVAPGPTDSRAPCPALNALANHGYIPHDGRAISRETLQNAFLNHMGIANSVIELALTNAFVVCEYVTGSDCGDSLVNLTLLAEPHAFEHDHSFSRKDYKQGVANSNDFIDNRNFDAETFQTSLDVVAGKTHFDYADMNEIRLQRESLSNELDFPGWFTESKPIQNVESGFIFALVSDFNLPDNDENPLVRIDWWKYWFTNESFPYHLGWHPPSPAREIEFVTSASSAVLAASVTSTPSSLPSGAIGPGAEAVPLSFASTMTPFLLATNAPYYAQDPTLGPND
The test can be described thus: paramagnetic NMR T1 relaxation titration with purified CPO. The format is binding.

Among the data in publication PMC3812394 (Biochemistry, 2013) are Kd values, retold here.

For orientation: Kd means the free concentration of one partner at which half of the binding sites on the other are occupied at equilibrium, for simple one-to-one binding.

Molecules are shown by their SMILES.

`c1ccc2[nH]ccc2c1` [indole] gave a Kd of around 21 mM.
